Twelve compounds from US9636418B2 (priority 2013, dated 2017) can be followed below.

By IC50 is commonly meant the concentration that gives 50% inhibition.

The target in one assay is hNav1.4 (Homo sapiens, UniProt P35499). As to the kind of experiment: cell-based. The following applies: for IC50: PatchXpress, read-out: PX hNav1.4 Tonic IC50.
The next assay has as its target hNav1.7 (Homo sapiens, UniProt Q15858). As to the kind of experiment: cell-based. It is filed as cell-based.
[1] abbreviates: PatchXpress, tonic block, read-out: PX hNav1.7 Tonic IC50.
[2] abbreviates: * = at high concentrations compound would wash off slowly or not at all.
Setting [3] is: PatchXpress, * = at high concentrations compound would wash off slowly or not at all, read-out: PX hNav1.7 Tonic IC50.

Where “and” joins values, the source holds several entries; their conditions need not be identical. Equal entries are not always repeated. Where two headings read alike, the source gives them in different places.

hNav1.7, sequence (Q15858 whole entry): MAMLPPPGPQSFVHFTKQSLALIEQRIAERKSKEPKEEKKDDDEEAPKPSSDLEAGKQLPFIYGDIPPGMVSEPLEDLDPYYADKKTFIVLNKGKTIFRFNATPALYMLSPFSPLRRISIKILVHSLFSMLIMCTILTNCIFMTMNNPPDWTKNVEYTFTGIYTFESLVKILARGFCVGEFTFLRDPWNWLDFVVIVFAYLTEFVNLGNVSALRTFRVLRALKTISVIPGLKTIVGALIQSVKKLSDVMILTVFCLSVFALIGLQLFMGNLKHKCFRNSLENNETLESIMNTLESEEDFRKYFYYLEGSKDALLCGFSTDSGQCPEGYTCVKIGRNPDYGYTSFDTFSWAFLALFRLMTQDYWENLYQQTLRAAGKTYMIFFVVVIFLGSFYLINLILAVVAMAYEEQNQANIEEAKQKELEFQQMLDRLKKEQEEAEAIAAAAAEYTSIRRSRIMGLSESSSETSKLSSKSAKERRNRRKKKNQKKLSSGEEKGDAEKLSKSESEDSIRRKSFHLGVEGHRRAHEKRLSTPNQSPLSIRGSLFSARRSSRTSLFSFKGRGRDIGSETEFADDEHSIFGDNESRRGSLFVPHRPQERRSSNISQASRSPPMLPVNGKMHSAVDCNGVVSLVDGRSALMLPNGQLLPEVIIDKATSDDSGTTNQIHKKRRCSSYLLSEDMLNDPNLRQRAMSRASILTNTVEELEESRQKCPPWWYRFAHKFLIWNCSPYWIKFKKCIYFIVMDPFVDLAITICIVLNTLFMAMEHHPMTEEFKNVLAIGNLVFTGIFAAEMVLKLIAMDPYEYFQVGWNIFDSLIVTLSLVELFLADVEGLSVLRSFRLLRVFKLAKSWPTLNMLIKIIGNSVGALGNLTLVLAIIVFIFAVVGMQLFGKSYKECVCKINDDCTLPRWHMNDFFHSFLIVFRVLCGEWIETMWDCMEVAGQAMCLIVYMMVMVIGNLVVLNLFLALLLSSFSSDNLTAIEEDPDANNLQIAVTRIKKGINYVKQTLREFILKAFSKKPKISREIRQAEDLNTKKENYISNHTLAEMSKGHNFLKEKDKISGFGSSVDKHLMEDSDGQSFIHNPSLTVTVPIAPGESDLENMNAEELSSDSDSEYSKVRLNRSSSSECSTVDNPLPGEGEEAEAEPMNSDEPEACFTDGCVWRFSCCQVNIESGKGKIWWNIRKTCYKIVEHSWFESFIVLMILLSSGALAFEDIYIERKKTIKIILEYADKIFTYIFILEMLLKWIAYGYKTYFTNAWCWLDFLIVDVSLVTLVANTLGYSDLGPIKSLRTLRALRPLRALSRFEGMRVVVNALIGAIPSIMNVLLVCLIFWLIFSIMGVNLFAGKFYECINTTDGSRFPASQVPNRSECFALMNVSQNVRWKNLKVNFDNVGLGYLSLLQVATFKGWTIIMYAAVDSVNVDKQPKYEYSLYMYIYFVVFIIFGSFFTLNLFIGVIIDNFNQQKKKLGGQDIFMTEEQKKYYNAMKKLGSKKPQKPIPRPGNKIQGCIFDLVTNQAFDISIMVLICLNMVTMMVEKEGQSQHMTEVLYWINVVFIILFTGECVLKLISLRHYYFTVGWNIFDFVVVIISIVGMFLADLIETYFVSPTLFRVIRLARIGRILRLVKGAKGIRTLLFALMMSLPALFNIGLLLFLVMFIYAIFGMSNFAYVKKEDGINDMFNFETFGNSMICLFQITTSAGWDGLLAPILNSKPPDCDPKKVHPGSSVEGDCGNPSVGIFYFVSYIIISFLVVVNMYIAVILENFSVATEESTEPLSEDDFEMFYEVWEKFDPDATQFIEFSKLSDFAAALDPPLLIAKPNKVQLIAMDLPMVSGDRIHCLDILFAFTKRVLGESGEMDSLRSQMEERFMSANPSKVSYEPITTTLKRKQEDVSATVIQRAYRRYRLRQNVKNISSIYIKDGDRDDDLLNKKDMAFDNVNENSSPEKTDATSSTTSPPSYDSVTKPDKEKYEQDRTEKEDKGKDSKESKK
hNav1.4, sequence (P35499 whole entry): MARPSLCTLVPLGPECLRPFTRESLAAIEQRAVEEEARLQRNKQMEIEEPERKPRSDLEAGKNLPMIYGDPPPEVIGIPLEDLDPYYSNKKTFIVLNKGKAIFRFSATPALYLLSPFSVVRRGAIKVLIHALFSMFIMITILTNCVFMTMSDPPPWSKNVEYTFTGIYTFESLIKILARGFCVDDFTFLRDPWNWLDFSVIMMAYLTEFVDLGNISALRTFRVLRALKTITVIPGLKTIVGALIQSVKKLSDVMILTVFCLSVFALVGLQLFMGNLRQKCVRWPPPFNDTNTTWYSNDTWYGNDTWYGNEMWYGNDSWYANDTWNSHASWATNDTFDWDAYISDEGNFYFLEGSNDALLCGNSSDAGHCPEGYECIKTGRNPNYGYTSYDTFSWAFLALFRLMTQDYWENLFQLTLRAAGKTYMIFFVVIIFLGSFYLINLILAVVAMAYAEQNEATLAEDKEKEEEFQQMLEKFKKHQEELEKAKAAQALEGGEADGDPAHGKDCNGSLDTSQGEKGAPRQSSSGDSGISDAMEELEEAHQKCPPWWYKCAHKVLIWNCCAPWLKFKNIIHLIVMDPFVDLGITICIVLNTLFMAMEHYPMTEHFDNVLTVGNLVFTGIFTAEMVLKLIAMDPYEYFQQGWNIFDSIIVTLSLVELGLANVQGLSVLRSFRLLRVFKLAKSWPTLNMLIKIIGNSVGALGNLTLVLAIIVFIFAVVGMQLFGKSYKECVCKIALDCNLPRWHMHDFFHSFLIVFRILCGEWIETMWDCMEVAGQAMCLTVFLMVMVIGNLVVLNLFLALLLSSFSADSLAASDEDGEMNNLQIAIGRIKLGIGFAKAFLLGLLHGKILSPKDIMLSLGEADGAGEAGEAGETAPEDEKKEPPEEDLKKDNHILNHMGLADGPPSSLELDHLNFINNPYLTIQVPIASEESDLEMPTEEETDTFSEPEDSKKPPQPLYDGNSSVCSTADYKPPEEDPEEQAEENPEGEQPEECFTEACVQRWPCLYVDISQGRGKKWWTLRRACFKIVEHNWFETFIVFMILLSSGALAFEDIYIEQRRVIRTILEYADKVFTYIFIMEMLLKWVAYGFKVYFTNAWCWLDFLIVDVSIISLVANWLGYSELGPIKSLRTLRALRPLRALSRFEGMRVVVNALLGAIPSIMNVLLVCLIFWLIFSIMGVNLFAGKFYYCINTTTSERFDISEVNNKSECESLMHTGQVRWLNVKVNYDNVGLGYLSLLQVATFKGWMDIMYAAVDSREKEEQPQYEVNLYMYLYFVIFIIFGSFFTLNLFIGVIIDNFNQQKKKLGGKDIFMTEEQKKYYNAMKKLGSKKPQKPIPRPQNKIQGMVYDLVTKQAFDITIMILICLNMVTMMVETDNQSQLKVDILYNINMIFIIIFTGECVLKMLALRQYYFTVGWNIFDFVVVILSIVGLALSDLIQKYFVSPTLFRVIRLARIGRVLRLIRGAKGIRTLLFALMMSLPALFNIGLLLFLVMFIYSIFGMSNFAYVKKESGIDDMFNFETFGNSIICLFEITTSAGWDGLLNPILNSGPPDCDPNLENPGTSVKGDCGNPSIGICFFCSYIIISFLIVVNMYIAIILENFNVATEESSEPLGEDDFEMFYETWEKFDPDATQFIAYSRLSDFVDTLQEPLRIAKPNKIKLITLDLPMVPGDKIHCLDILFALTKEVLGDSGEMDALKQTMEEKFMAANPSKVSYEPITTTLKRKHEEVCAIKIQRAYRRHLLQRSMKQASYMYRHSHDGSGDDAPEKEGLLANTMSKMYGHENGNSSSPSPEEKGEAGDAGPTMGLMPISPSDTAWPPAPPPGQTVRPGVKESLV

As to `C#CC[C@H](N)C(=O)NCCCC[C@@H]1NC(=O)[C@H](CCCNC(=N)N)NC(=O)[C@H](CCCCN)NC(=O)[C@H](CO)NC(=O)[C@H](CC(=O)O)NC(=O)[C@@H]2CSSC[C@@H]3NC(=O)[C@H](CCC(=O)O)NC(=O)[C@H](CC(C)C)NC(=O)CNC(=O)[C@H](CCC(=O)O)NC(=O)[C@H](CSSC[C@H](NC(=O)[C@H](Cc4ccc(O)cc4)NC(=O)[C@@H](N)CC#N)C(=O)N[C@@H](CCC(N)=O)C(=O)N[C@@H](CCCCN)C(=O)N[C@@H](Cc4c[nH]c5ccccc45)C(=O)N[C@@H](CCCC)C(=O)N[C@@H](Cc4c[nH]c5ccccc45)C(=O)N[C@@H]([C@@H](C)O)C(=O)N2)NC(=O)[C@H](CSSC[C@@H](C(=O)N[C@@H](CCCNC(=N)N)C(=O)N[C@@H](CCCCN)C(=O)N[C@H](C(=O)N[C@H](C(N)=O)[C@@H](C)CC)[C@@H](C)CC)NC(=O)[C@H](Cc2c[nH]c4ccccc24)NC(=O)[C@H](CC(C)C)NC(=O)[C@H](CCCCN)NC3=O)NC1=O` [compound 393], the half-maximal inhibitory concentration (IC50) on hNav1.4 (tonic block) is more than 10000 nM; on hNav1.7 (setting [1]), more than 100 nM. The corresponding values for `C#CC[C@H](N)C(=O)NCCCC[C@@H]1NC(=O)[C@H](CCCNC(=N)N)NC(=O)[C@H](CCCCN)NC(=O)[C@H](CO)NC(=O)[C@H](CC(=O)O)NC(=O)[C@@H]2CSSC[C@@H]3NC(=O)[C@H](CCC(=O)O)NC(=O)[C@H](CC(C)C)NC(=O)CNC(=O)[C@H](CCC(=O)O)NC(=O)[C@H](CSSC[C@H](NC(=O)[C@H](Cc4ccc(O)cc4)NC(=O)[C@@H](N)CC#N)C(=O)N[C@@H](CCC(N)=O)C(=O)N[C@@H](CCCCN)C(=O)N[C@@H](Cc4c[nH]c5ccccc45)C(=O)N[C@@H](CCCC)C(=O)N[C@@H](Cc4c[nH]c5ccccc45)C(=O)N[C@@H]([C@@H](C)O)C(=O)N2)NC(=O)[C@H](CSSC[C@@H](C(=O)N[C@@H](CCCNC(=N)N)C(=O)N[C@@H](CCCCN)C(=O)N[C@@H](Cc2ccc(O)cc2)C(=O)N[C@H](C(N)=O)[C@@H](C)CC)NC(=O)[C@H](Cc2c[nH]c4ccccc24)NC(=O)[C@H](CC(C)C)NC(=O)[C@H](CCCCN)NC3=O)NC1=O` [compound 394] are 964 nM and 0.05 nM. `C#CC[C@@H]1NC(=O)[C@@H]2CSSC[C@H](NC(=O)[C@H](Cc3ccc(O)cc3)NC(=O)[C@@H](N)CC#N)C(=O)N[C@@H](CCC(N)=O)C(=O)N[C@@H](CCCCN)C(=O)N[C@@H](Cc3c[nH]c4ccccc34)C(=O)N[C@@H](CCCC)C(=O)N[C@@H](Cc3c[nH]c4ccccc34)C(=O)N[C@@H]([C@@H](C)O)C(=O)N[C@H]3CSSC[C@H](NC(=O)[C@H](CCC(=O)O)NC(=O)[C@H](CC(C)C)NC(=O)CNC1=O)C(=O)N[C@@H](CCCCN)C(=O)N[C@@H](CC(C)C)C(=O)N[C@@H](Cc1c[nH]c4ccccc14)C(=O)N[C@H](C(=O)N[C@@H](CCCNC(=N)N)C(=O)N[C@@H](CCCCN)C(=O)N[C@@H](Cc1ccc(O)cc1)C(=O)N[C@H](C(N)=O)[C@@H](C)CC)CSSC[C@H](NC(=O)[C@H](C)NC(=O)[C@H](CCCNC(=N)N)NC(=O)[C@H](CCCCN)NC(=O)[C@H](CO)NC(=O)[C@H](CC(=O)O)NC3=O)C(=O)N2` [compound 397]: the half-inhibitory concentration (IC50) at hNav1.4 (tonic block) stood at 1760 nM; on hNav1.7 (setting [1]), 87.1 nM. For the same compound, at hNav1.4 (ratio of PX tonic IC50 values), the Nav1.4/Nav1.7 is recorded as 20.

Consider `CCCC[C@@H]1NC(=O)[C@H](Cc2c[nH]c3ccccc23)NC(=O)[C@H](CCCCN)NC(=O)[C@H](CCC(N)=O)NC(=O)[C@@H](NC(=O)[C@@H](N)Cc2ccc(O)cc2)CSSC[C@@H]2NC(=O)[C@@H]3CSSC[C@@H](C(=O)N[C@@H](CCCNC(=N)N)C(=O)N[C@@H](CCCCN)C(=O)N[C@@H](CCC(=O)O)C(=O)N[C@H](C(N)=O)[C@@H](C)CC)NC(=O)[C@H](Cc4c[nH]c5ccccc45)NC(=O)[C@H](CC(C)C)NC(=O)[C@H](CCCCN)NC(=O)[C@H](CSSC[C@H](NC(=O)[C@H]([C@@H](C)O)NC(=O)[C@H](Cc4c[nH]c5ccccc45)NC1=O)C(=O)N[C@@H](CC(=O)O)C(=O)N[C@@H](CO)C(=O)N[C@@H](CCCCN)C(=O)N[C@@H](CCCNC(=N)N)C(=O)N[C@@H](C)C(=O)N3)NC(=O)[C@H](CCCNC(=N)N)NC(=O)[C@H](CC(C)C)NC(=O)CNC(=O)[C@H](Cc1cn(CCCOCCOCCOCCOCCOCCOCCOCCOCCOCCOCCN)nn1)NC2=O` [compound 406], for which the IC50 was 65.9 nM on hNav1.4 (setting [2]) and 5.88 nM on hNav1.7 (setting [3]). Besides, the Nav1.4/Nav1.7 on hNav1.4 (ratio of PX IC50 values) was determined as 11.

For `CCCC[C@@H]1NC(=O)[C@H](Cc2c[nH]c3ccccc23)NC(=O)[C@H](CCCCN)NC(=O)[C@H](CCC(N)=O)NC(=O)[C@@H](NC(=O)[C@@H](N)Cc2cn(CCCOCCOCCOCCOCCOCCOCCOCCOCCOCCOCCN)nn2)CSSC[C@@H]2NC(=O)[C@@H]3CSSC[C@@H](C(=O)N[C@@H](CCCNC(=N)N)C(=O)N[C@@H](CCCCN)C(=O)N[C@H](C(=O)N[C@H](C(N)=O)[C@@H](C)CC)[C@@H](C)CC)NC(=O)[C@H](Cc4c[nH]c5ccccc45)NC(=O)[C@H](CC(C)C)NC(=O)[C@H](CCCCN)NC(=O)[C@H](CSSC[C@H](NC(=O)[C@H]([C@@H](C)O)NC(=O)[C@H](Cc4c[nH]c5ccccc45)NC1=O)C(=O)N[C@@H](CC(=O)O)C(=O)N[C@@H](CO)C(=O)N[C@@H](CCCCN)C(=O)N[C@@H](CCCNC(=N)N)C(=O)N[C@@H](C)C(=O)N3)NC(=O)[C@H](CCC(=O)O)NC(=O)[C@H](CC(C)C)NC(=O)CNC(=O)[C@H](CCC(=O)O)NC2=O` [compound 407], the IC50 is 549 nM on hNav1.4 (setting [2]) and 6.48 nM on hNav1.7 (setting [3]). Take `C#CC[C@H](N)C(=O)NCCOCCOCCOCCOCCC(=O)NCCCC[C@@H]1NC(=O)[C@H](CCCNC(=N)N)NC(=O)[C@H](CCCCN)NC(=O)[C@H](CO)NC(=O)[C@H](CC(=O)O)NC(=O)[C@@H]2CSSC[C@@H]3NC(=O)[C@H](CCCNC(=N)N)NC(=O)[C@H](CC(C)C)NC(=O)CNC(=O)[C@H](CCC(=O)O)NC(=O)[C@H](CSSC[C@H](NC(=O)[C@H](Cc4ccc(O)cc4)NC(=O)[C@@H](N)CCC)C(=O)N[C@@H](CCC(N)=O)C(=O)N[C@@H](CCCCN)C(=O)N[C@@H](Cc4c[nH]c5ccccc45)C(=O)N[C@@H](CCCC)C(=O)N[C@@H](Cc4c[nH]c5ccccc45)C(=O)N[C@@H]([C@@H](C)O)C(=O)N2)NC(=O)[C@H](CSSC[C@@H](C(=O)N[C@@H](CCCNC(=N)N)C(=O)N[C@@H](CCCCN)C(=O)N[C@H](C(=O)N[C@H](C(N)=O)[C@@H](C)CC)[C@@H](C)CC)NC(=O)[C@H](Cc2c[nH]c4ccccc24)NC(=O)[C@H](CC(C)C)NC(=O)[C@H](CCCCN)NC3=O)NC1=O` [compound 432]: the half-maximal inhibitory concentration (IC50) at hNav1.4 (tonic block) is 16.5 nM; at hNav1.7 (setting [1]) it was 1.43 nM and 1.56 nM. Further, at hNav1.4 (ratio of PX tonic IC50 values), the Nav1.4/Nav1.7 is listed as 12. Regarding `C#CC[C@H](N)C(=O)NCCCC[C@@H]1NC(=O)[C@H](CCCNC(=N)N)NC(=O)[C@H](CCCCN)NC(=O)[C@H](CO)NC(=O)[C@H](CC(=O)O)NC(=O)[C@@H]2CSSC[C@@H]3NC(=O)[C@H](CCCNC(=N)N)NC(=O)[C@H](CC(C)C)NC(=O)CNC(=O)[C@H](CCC(=O)O)NC(=O)[C@H](CSSC[C@H](NC(=O)[C@H](Cc4ccc(O)cc4)NC(=O)[C@@H](N)CCC)C(=O)N[C@@H](CCC(N)=O)C(=O)N[C@@H](CCCCN)C(=O)N[C@@H](Cc4c[nH]c5ccccc45)C(=O)N[C@@H](CC(C)C)C(=O)N[C@@H](Cc4c[nH]c5ccccc45)C(=O)N[C@@H]([C@@H](C)O)C(=O)N2)NC(=O)[C@H](CSSC[C@@H](C(=O)N[C@@H](CCCNC(=N)N)C(=O)N[C@@H](CCCCN)C(=O)N[C@@H](CCC(=O)O)C(=O)N[C@H](C(N)=O)[C@@H](C)CC)NC(=O)[C@H](Cc2c[nH]c4ccccc24)NC(=O)[C@H](CC(C)C)NC(=O)[C@H](CCCCN)NC3=O)NC1=O` [compound 439], on hNav1.7 (setting [1]), the IC50 is 1.04 nM and 1.37 nM and 0.384 nM and 0.612 nM. Same read-out and setting: next, `C#CC[C@H](N)C(=O)NCCCC[C@@H]1NC(=O)[C@H](CCCNC(=N)N)NC(=O)[C@H](CCCCN)NC(=O)[C@H](CO)NC(=O)[C@H](CC(=O)O)NC(=O)[C@@H]2CSSC[C@@H]3NC(=O)[C@H](CCC(=O)O)NC(=O)[C@H](CC(C)C)NC(=O)CNC(=O)[C@H](CCC(=O)O)NC(=O)[C@H](CSSC[C@H](NC(=O)[C@H](Cc4ccc(O)cc4)NC(=O)[C@@H](N)CCC)C(=O)N[C@@H](CCC(N)=O)C(=O)N[C@@H](CCCCN)C(=O)N[C@@H](Cc4c[nH]c5ccccc45)C(=O)N[C@@H](CC(C)C)C(=O)N[C@@H](Cc4c[nH]c5ccccc45)C(=O)N[C@@H]([C@@H](C)O)C(=O)N2)NC(=O)[C@H](CSSC[C@@H](C(=O)N[C@@H](CCCNC(=N)N)C(=O)N[C@@H](CCCCN)C(=O)N[C@@H](Cc2ccc(O)cc2)C(=O)N[C@H](C(N)=O)[C@@H](C)CC)NC(=O)[C@H](Cc2c[nH]c4ccccc24)NC(=O)[C@H](CC(C)C)NC(=O)[C@H](CCCCN)NC3=O)NC1=O` [compound 440]: 1.95 nM; `C#CC[C@H](N)C(=O)NCCCC[C@@H]1NC(=O)[C@H](CCCNC(=N)N)NC(=O)[C@H](CCCCN)NC(=O)[C@H](CO)NC(=O)[C@H](CC(=O)O)NC(=O)[C@@H]2CSSC[C@@H]3NC(=O)[C@H](CCC(=O)O)NC(=O)[C@H](CC(C)C)NC(=O)CNC(=O)[C@H](CCC(=O)O)NC(=O)[C@H](CSSC[C@H](NC(=O)[C@H](Cc4ccc(O)cc4)NC(=O)[C@@H](N)CCC)C(=O)N[C@@H](CCC(N)=O)C(=O)N[C@@H](CCCCN)C(=O)N[C@@H](Cc4c[nH]c5ccccc45)C(=O)N[C@@H](CC(C)C)C(=O)N[C@@H](Cc4c[nH]c5ccccc45)C(=O)N[C@@H]([C@@H](C)O)C(=O)N2)NC(=O)[C@H](CSSC[C@@H](C(=O)N[C@@H](CCCNC(=N)N)C(=O)N[C@@H](CCCCN)C(=O)N[C@H](C(=O)N[C@@H](Cc2c[nH]c4ccccc24)C(N)=O)[C@@H](C)CC)NC(=O)[C@H](Cc2c[nH]c4ccccc24)NC(=O)[C@H](CC(C)C)NC(=O)[C@H](CCCCN)NC3=O)NC1=O` [compound 441]: 10.4 nM.

Turning to [1-Nal7]JzTx-V(1-29) [SEQ ID NO: 30], the “hNav1.7 potency/activity compared with wild type JzTx-V” value on hNav1.7 is “retained hNav1.7 activity similar to the wild type peptide”. Same read-out and setting: next, [1-Nal24]JzTx-V(1-29) [SEQ ID NO: 43]: “loses considerable activity against hNav1.7”. As for “[Phe6,Atz(500 Da EtO-PEG*-{[Phe6,Atz13*]GpTx-1(1-34)})13]GpTx-1(1-34) [Homodimeric Conjugate No. 4]”, the Wash out entry on hNav1.7 was “Yes”. In addition, the IC50 at hNav1.7 (read-out: Nav1.7 PX IC50) worked out at 19 nM.
